# Laboratory results from patent US9724329B2, “Stimulating immune response” (Peter MacCallum Cancer Institute, priority 2010, dated 2017).
# Entries after “also recorded” stand apart in the source; their conditions may differ.
# Assays:
# [1] = test system: K562 cells (natural killer (NK) only sensitive cell line); test: NK-cell cytotoxicity: drug-treated PBMC as effectors in chromium release assay; type: cell-based, human; conditions: for NK cell function / cytotoxicity (K562 lysis): 10 uM, PBMC cultured 3 days, versus untreated
# Description: (§1) FIG. 10. […] (b) The anti-inflammatory potential of NMP was assessed using LPS-treated CD14+ monocytes that were isolated from healthy donor PBMC. Monocytes were treated with 10 uM NMP or lenalidomide (LEN) and 1 ug/mL LPS for 18 hr or left untreated (Unt), then supernatants were analyzed via cytokine bead array for TNFα and IL-6. (c) The polarizing effect of NMP on cytokine production from PBMC was assessed from supernatants collected after 3d drug treatment. Levels of IL-2, IL-4 and IL-10 were analyzed by cytokine bead array. (d) NK-cell cytotoxicity was assessed by culturing healthy donor PBMC in the presence of 10 uM NMP, 10 uM lenalidomide, or as media alone (Unt). Cells harvested after 3d were washed and used as effectors in chromium release assays against the NK-only sensitive cell line, K562 at an effector ratio of 50:1. […] Data are presented as mean+/−SEM. NS, not statistically significant. (p≧0.05), *p<0.05
# Healthy donor peripheral blood mononuclear cells (PBMC) were cultured for 3 days in RPMI-1640 and 10% FCS in the presence of 10 uM NMP, 10 uM Len (positive control) or no drugs. After 3 days the cells were harvested and used as effectors in a standard 4 hr chromium release assay, using K562 as targets (natural killer (NK) only sensitive cell line) (n=3).
# BEZ235 and lenalidomide were dissolved in dimethylsulfoxide (DMSO) as 10 mM stock solutions and further diluted in media to final concentrations as specified in figure legends. The final concentration of DMSO was not greater than 0.1% v/v in any assay.
# myeloma cell line (U266) = test: Direct cytotoxicity, Annexin V and 7aad flow cytometry, U266; type: cell-based, human; conditions: NMP 0 uM, 1 uM, 10 uM, 100 uM or 10 mM, 48 hours
# Description: (§2) PBMC and a myeloma cell line (U266) were cultured in RPMI-1640 with 10% FCS in the presence of NMP (0 uM, 1 uM, 10 uM, 100 uM or 10 mM) for 48 hours. The cells were stained with viability markers (Annexin V and 7aad) and analyzed on the flow cytometer (n=2).
# [2] = rats, in the diet; cited from earlier work
# PBMC [3] = test: Immune cell subset composition of cultured PBMC; type: cell-based, human; conditions: 10 uM, 3 days
# Description: PBMC were cultured in RPMI-1640 and 10% FCS for 3 days in the presence of either 10 uM NMP, 10 uM Len or no drugs. At day 3 the cells were harvested and stained for T cell markers (CD4 and CD8), NK markers (CD3−, CD56) and regulatory T cells (CD3, CD4, CD25, CD127low). For controls, day 0 PBMC were stained to assess changes in cellular subsets after 3 days (n=3).
# [4] = rats, long-term exposure via inhalation or diet; cited from earlier work
# Vk*MYC MM bearing mice = test: Serum cytokines in MM bearing mice; type: in vivo, mouse; conditions: FIG. 8e; one week of treatment, versus SAL
# Description: (§3) Supernatants from cultured cells or serum from VK*MYC mice were used to assess the level of individual cytokines (as specified in the methods and results section) via the Luminex cytokine bead array system. The assay was conducted according to the manufacturer instructions. Briefly, pre-mixed beads were added to 25 uL of undiluted supernatant/serum, followed by the addition of detection antibodies and streptavidin in 96 well filtered-membrane plates. The plates were run on the Luminex 200 instrument and data analysed with the xPONENT software.
# For cytokine assessment in MM bearing mice, mice were treated daily for 7d with NMP or SAL, and serum collected 4 hours after the last dose.
# transplanted Vk*MYC MM = test: Transplanted Vk*MYC myeloma model in mice: survival, paraproteinaemia (M-spike), serum immunoglobulin; type: in vivo, mouse; conditions: for efficacy against Vk*MYC MM in vivo (progression): FIG. 8d, lenalidomide 100 mg/kg, NMP, saline control
# Description: Sublethally (6Gy) irradiated C57BL/6 mice were injected with 1×10e5 Vk*myc splenocytes derived from myelomatous mice by intravenous injection. Recipient mice were monitored by serum protein electophoresis for development of monoclonal paraproteinaemia (M-spike). The monoclonal paraprotein is a sensitive and specific marker of myeloma burden, as this protein is only produced by myeloma cells. Paraprotein estimation is a standard clinical parameter by which myeloma is monitored in human patients. Once detected, M-spikes were quantitated by densitometry (expressed as % of total serum protein). […] Mice were monitored by weekly M-spike quantification and for clinically apparent disease. Mice developing distress due to disease progression (e.g. hind limb paralysis, splenic rupture) were euthanased.
# All mouse experiments were carried out in accordance with ethical guidelines determined by the Peter Mac Animal Experimental Ethics Committee. For in vivo assessment of NMP efficacy, treatment studies were performed on mice bearing transplanted Vk*MYC myeloma^2. […] To exclude the potential for adoptive transfer of immune cells with grafts into Rag2^−/−cγ^−/− mice and matched C57BL/6 recipients (FIG. 8f), freshly sorted Vk*MYC MM cells (40,000 per mouse) were used for this experiment. The onset of transplanted disease was confirmed by serum protein electrophoresis; those mice manifesting M-protein >2% of total serum protein (FIG. 8a) or >5% (remaining figures) were selected for treatment.
# All dosing was performed by oral gavage using freshly prepared drug solutions or suspensions. Mice were dosed with NMP according to standard practice for drug administration using NMP/PEG as a vehicle^1. NMP (Sigma Aldrich, NSW, AUS) was diluted 1 in 10 v/v (FIG. 8a) or 1 in 5 v/v (remaining figures) in PEG300 (Sigma Aldrich, NSW, AUS) and administered by oral gavage to a final volume of 1 uL NMP per gram mouse weight.
# BEZ235 was kindly provided by Novartis. According to Novartis' recommendations, BEZ235 was dissolved in NMP by heating briefly to 60° C. and further diluting 1 in 10 v/v in PEG300. Alternatively BEZ235 was suspended in 0.5% methylcellulose (MC) solution and mixed thoroughly prior to administration.
# Lenalidomide was kindly provided by Celgene. Lenalidomide was suspended in 0.9% saline solution immediately prior to oral gavage at a dose of 100 mg/kg.
# Treatment was continued daily for the first month, then weekdays only for the remainder of the indicated treatment period. Mice were culled with the development of features of overt myeloma, including permanent hind-limb paralysis and disseminated extramedullary disease.
# Freshly obtained mouse serum was analyzed for paraproteinemia on the Sebia Hydrasys® semi-automated agarose gel electrophoresis system (Sebia, Norcross, Ga., USA). Serum M-spike densitometry quantification was performed using Phoresis software (release 4.7.2, Sebia) by a biochemist blinded to the nature of group allocation. M-spike results are expressed as a percentage of total serum protein.
# For correlative quantitative immunoglobulin estimates, thawed aliquots of serum were batched for sandwich enzyme-linked immunosorbent assay (ELISA) using Igλ or IgK capture antibodies (Southern Biotech, AL, USA) and biotin/streptavidin detection by horseradish peroxidase/tetramethylbenzidine dihydrochloride substrate standardized against IgMK/IgMl isotype controls (Biolegend, CA, USA). ELISA plates were read using a VersaMax™ microplate reader and analyzed by SoftMax Pro software v 5.4 (Molecular Devices, CA, USA).
# CD14+ monocytes = test: Inflammatory cytokine secretion by LPS-treated CD14+ monocytes; type: cell-based, human; conditions: 10 uM; for IL-6 secretion / TNFα secretion: FIG. 10b, 1 ug/mL LPS, 18 hr
# Description: as §1
# CD14+ monocytes were sorted via the Dynal bead kit from PBMC. The cells were then treated with LPS to induce cytokine production, and cultured overnight in the presence of 10 uM NMP, 10 uM Len or no drugs. As background controls, non LPS stimulated monocytes were used. The supernatants were harvested and IL-1beta, GM-CSF, IL-6 and TNF-alpha analyzed via the Luminex beady array assay (n=3).
# as §3
# U266 cells = test: Expression of NKG2D and DNAM-1 ligands on myeloma cells (flow cytometry); type: cell-based, human; conditions: 10 uM, 48 hrs; FIG. 10f
# [5] = bacterial and mammalian tests; cited from earlier work
# PBMC [6] = test: Direct cytotoxicity, Annexin V and 7aad flow cytometry, PBMC; type: cell-based, human; conditions: NMP 0 uM, 1 uM, 10 uM, 100 uM or 10 mM, 48 hours
# Description: as §2
# [7] = test system: LPS induced inflammation and shock; test: LPS challenge, serum cytokines in non-tumor bearing mice; type: in vivo, mouse; conditions: FIG. 8c; serum 4 hours after LPS; NMP 1 uL/g po, lenalidomide 2 x 100 mg/kg po
# Description: as §3
# For LPS challenges, non-tumor bearing C57BL/6 mice were administered LPS (E. Coli 0127:B8, gamma-irradiated; Sigma) 1 mg/30 g mouse weight by intraperitoneal injection. NMP (1 uL/g mouse weight in PEG, po) was administered 4 hours prior to LPS. Lenalidomide was administered in 2 doses of 100 mg/kg po 24 and 4 hours prior to LPS. Serum was obtained 4 hours after LPS challenge and analyzed for cytokine content by bead array.
# [8] = in vivo; cited from earlier work
# [9] = test system: peripheral blood mononuclear cells (PBMC); test: Cytokine production of PBMC (cytokine bead array); type: cell-based, human; conditions: for cytokine secretion profile (Th): FIG. 10c, 3d drug treatment
# Description: PBMC were cultured for 3 days in RPMI-1640 and 10% FCS in the presence of 10 uM NMP, 10 uM Len or no drugs. After 3 days, supernatants were collected and a cytokine bead array performed via the Luminex instrument to analyze changes in IL-2, IL-4 and IL-10 production (n=3).
# as §3
# [10] = test system: PI3K/mTOR phosphorylation targets; test: PI3K/mTOR phosphorylation targets in vivo; conditions: in vivo (not shown)
structure (smiles),measurement,setting,value
"CN1CCCC1=O [NMP, N-methylpyrrolidone]",NK cell function / cytotoxicity (K562 lysis),[1],enhancement; also recorded: enhanced
same,direct cytotoxicity (AnnV+7aad+),myeloma cell line (U266),did not increase to any significant extent; also recorded: not cytotoxic
same,no-effect level (for a decrease in pup body weight),[2],160 mg/kg/day
same,"proportions of immune cell subtypes (CD4, CD8, NK, regulatory T cells)",PBMC [3],no significant alteration; also recorded: without altering
same,carcinogenic effects,[4],no carcinogenic effects
same,serum IL-6,Vk*MYC MM bearing mice,reductions
same,serum TNFα,Vk*MYC MM bearing mice,reductions
same,median survival,"transplanted Vk*MYC MM; Example 1, FIG. 1, C57BL/6, NMP/PEG 1:10 v/v, 10 uL per gram, daily oral, 60 days, control 46 days",60 days
same,residual polyclonal Ig Lambda (L),transplanted Vk*MYC MM; FIG. 8b,better maintained; also recorded: less suppressed
same,clonally secreted Ig Kappa (K),"transplanted Vk*MYC MM; FIG. 8b, NMP/PEG versus PEG alone or PBS",Suppression
same,NMP response in Rag2−/−cγ−/− knockout mice,"transplanted Vk*MYC MM; FIG. 8f, immunodeficient mice lacking T, B or NK cells",No response
same,NMP response in wild type C57BL/6 mice,"transplanted Vk*MYC MM; FIG. 8f, same Vk*MYC clone",only observed in wild type C57BL/6
same,efficacy against Vk*MYC MM in vivo (progression),transplanted Vk*MYC MM,regressed
same,"secretion of the four inflammatory cytokines (IL-1beta, GM-CSF, IL-6, TNF-alpha)","CD14+ monocytes; Example 6, FIG. 7, overnight, relative to LPS only control",not shown to demonstrate a statistically significant effect
same,IL-6 secretion,CD14+ monocytes,Statistically significant inhibition; also recorded: suppressed
same,TNFα secretion,CD14+ monocytes,Statistically significant inhibition; also recorded: suppressed
same,"expression of NKG2D and DNAM-1 ligands (MIC-B, ULBP-1, ULBP-2 and CD155)",U266 cells,upregulated
same,genotoxicity,[5],no genotoxicity
same,direct cytotoxicity (AnnV+7aad+),PBMC [6],did not increase to any significant extent; also recorded: not cytotoxic
same,IL-6 production following LPS challenge,[7],suppressed
same,TNFα serum levels following LPS challenge,[7],suppressed
same,oral LD50,[8],3600 to 7700 mg/kg
same,IL4 production,"[9]; 10 uM, 3 days",inhibit
same,IL10 production,"[9]; 10 uM, 3 days",inhibit
same,cytokine secretion profile (Th),[9],away from a Th-2 profile
same,effect on PI3K/mTOR phosphorylation targets,[10],did not detect any consistent effect
"Nc1cccc2c1CN(C1CCC(=O)NC1=O)C2=O (stereo not shown) [Lenalidomide, reference compound]",NK cell function / cytotoxicity (K562 lysis),[1],enhanced
same,"proportions of immune cell subtypes (CD4, CD8, NK, regulatory T cells)",PBMC [3],without altering
same,efficacy against Vk*MYC MM in vivo (progression),transplanted Vk*MYC MM,poor efficacy
same,efficacy against Vk*MYC MM in vivo (progression),transplanted Vk*MYC MM; listed as lenalidomide,minimal effects
same,IL-6 secretion,CD14+ monocytes,suppressed
same,TNFα secretion,CD14+ monocytes,suppressed
same,"expression of NKG2D and DNAM-1 ligands (MIC-B, ULBP-1, ULBP-2 and CD155)",U266 cells,a property not shared
same,IL-6 production following LPS challenge,[7],only NMP suppressed
same,TNFα serum levels following LPS challenge,[7],suppressed
same,IL-2 production,"[9]; 10 uM, 3 days",without altering
same,cytokine secretion profile (Th),[9],away from a Th-2 profile
same,effect on PI3K/mTOR phosphorylation targets,[10],did not detect any consistent effect
"Cn1c(=O)n(-c2ccc(C(C)(C)C#N)cc2)c2c3cc(-c4cnc5ccccc5c4)ccc3ncc21 [BEZ235, reference compound]",effect of co-treatment on NMP-induced NK-cell lysis,"[1]; BEZ235 250 nM with NMP, FIG. 10e",inhibited; also recorded: downregulated
same,median survival,"transplanted Vk*MYC MM; FIG. 8a, BEZ235 25 mg/kg/d concurrent with NMP/PEG, n=6",42.5 days
same,effect on disease progression,"transplanted Vk*MYC MM; FIG. 8a, BEZ235 in MC vehicle",minimal effect
same,median survival,"transplanted Vk*MYC MM; FIG. 8a, BEZ235 in MC vehicle, n=8",47.5 days
same,effect of concurrent administration on the therapeutic effect of NMP,"transplanted Vk*MYC MM; FIG. 8a, BEZ235 with NMP/PEG",antagonized
